Assay results from ChEMBL document CHEMBL1143080, “Discovery of a novel series of nonsteroidal androgen receptor modulators: 5- or 6-oxachrysen-2-ones” (Bioorg Med Chem Lett, 2008).

Legend:
[1] = target: T1, Androgen receptor (Homo sapiens, UniProt P10275)
T1 sequence (P10275 whole entry): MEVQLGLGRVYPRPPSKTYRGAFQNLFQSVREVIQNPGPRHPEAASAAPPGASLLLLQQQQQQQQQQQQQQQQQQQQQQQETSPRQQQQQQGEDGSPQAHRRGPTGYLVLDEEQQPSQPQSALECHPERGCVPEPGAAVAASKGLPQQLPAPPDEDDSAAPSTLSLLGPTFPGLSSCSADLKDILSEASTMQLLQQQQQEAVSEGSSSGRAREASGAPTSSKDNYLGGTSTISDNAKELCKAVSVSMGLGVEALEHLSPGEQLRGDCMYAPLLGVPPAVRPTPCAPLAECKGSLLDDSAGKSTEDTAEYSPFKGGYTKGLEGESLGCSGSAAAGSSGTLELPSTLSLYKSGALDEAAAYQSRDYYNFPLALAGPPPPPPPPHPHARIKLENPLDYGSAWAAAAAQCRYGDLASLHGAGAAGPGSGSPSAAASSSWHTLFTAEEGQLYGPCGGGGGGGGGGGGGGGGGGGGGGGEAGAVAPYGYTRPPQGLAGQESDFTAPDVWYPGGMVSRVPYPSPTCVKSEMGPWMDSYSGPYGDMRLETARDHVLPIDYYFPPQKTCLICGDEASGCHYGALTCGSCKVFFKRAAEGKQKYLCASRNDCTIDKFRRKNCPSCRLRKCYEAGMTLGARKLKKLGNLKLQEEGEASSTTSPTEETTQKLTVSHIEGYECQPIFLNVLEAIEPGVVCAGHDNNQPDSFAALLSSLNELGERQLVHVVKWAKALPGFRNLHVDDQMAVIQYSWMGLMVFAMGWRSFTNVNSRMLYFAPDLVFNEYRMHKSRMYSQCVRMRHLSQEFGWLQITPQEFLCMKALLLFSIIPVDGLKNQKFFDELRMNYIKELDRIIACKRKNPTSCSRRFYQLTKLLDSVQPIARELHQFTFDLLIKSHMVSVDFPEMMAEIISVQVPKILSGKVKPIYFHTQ
Description: Agonist activity at human androgen receptor african green monkey CV1 cells by cotransfection assay

[2] = target: T1, Androgen receptor; remark: listed apart in the source
Description: Antagonist activity at human androgen receptor african green monkey CV1 cells by cotransfection assay

[3] = target: T1, Androgen receptor; remark: listed apart in the source
Description: Activity at androgen receptor in human Saos2 cells assessed as IL6 repression

[4] = target: T1, Androgen receptor; remark: listed apart in the source
Description: Binding affinity to human androgen receptor expressed in monkey COS7 cells by whole cell binding assay

| Structure (SMILES) | EC50 [1] | IC50 [2] | IC50 [3] | Ki [4] |
| --- | --- | --- | --- | --- |
| COc1c(OC(C)C)ccc2oc(=O)c3c(ccc4[nH]c(=O)cc(C)c43)c12 | 0.023 µM | 0.02 µM | 0.0028 µM | 0.021 µM |
| Cc1cc(=O)[nH]c2ccc3c4c(C(=O)OC(C)(C)C)cccc4oc(=O)c3c12 | 0.0011 µM | > 10 µM | 0.0019 µM | 0.0087 µM |
| COc1cccc2oc(=O)c3c(ccc4[nH]c(=O)cc(C)c43)c12 | 0.011 µM | > 10 µM | 0.021 µM | 0.028 µM |
| COc1ccc2oc(=O)c3c(ccc4[nH]c(=O)cc(C)c43)c2c1 | > 10 µM | 0.048 µM | 0.0008 µM | 0.61 µM |
| COc1cccc2c1-c1ccc3[nH]c(=O)cc(C)c3c1CO2 | 0.05 µM | > 10 µM | 0.012 µM | 0.059 µM |
| COc1c(C(=O)OC(F)(F)F)ccc2oc(=O)c3c(ccc4[nH]c(=O)cc(C)c43)c12 | 0.043 µM | > 10 µM | 0.0002 µM | 0.01 µM |
| COc1cccc2c(=O)oc3c(ccc4[nH]c(=O)cc(C(F)(F)F)c43)c12 | 0.09 µM | > 10 µM | 0.089 µM | 0.05 µM |
| COc1cccc2c1-c1ccc3[nH]c(=O)cc(C)c3c1C(O)O2 (stereo not given) | 0.208 µM | > 10 µM | 0.05 µM | 1.3 µM |
| COc1c(O)ccc2oc(=O)c3c(ccc4[nH]c(=O)cc(C)c43)c12 | 0.021 µM | > 10 µM | 0.0002 µM | 0.004 µM |
| COc1c(O)ccc2c1-c1ccc3[nH]c(=O)cc(C)c3c1CO2 | 0.306 µM | 0.019 µM | 0.0012 µM | 0.005 µM |
| CCOc1ccc2oc(=O)c3c(ccc4[nH]c(=O)cc(C)c43)c2c1OC | 0.018 µM | > 10 µM | 0.01 µM | 0.062 µM |
| COc1cccc2c1-c1ccc3[nH]c(=O)cc(C)c3c1C(OC)O2 (stereo not given) | 0.184 µM | 0.019 µM | 0.112 µM | 2.35 µM |
| COc1cccc2c1-c1ccc3[nH]c(=O)cc(C(F)(F)F)c3c1OC2 | > 10 µM | 0.078 µM | 0.477 µM | 0.027 µM |
| COc1cccc2c1-c1ccc3[nH]c(=O)cc(C(F)(F)F)c3c1CO2 | 0.02 µM | > 10 µM | 0.014 µM | 0.011 µM |
| C=CCC1Oc2cccc(OC)c2-c2ccc3[nH]c(=O)cc(C)c3c21 (stereo not given) | > 10 µM | 0.144 µM | – | 1.59 µM |
| O=c1cc(C(F)(F)F)c2c3c(ccc2[nH]1)-c1c(O)cccc1OC3 | 0.016 µM | > 10 µM | 0.0011 µM | 0.0013 µM |
| COc1cccc2c1-c1ccc3[nH]c(=O)cc(C)c3c1C(C)O2 (stereo not given) | > 10 µM | 0.062 µM | – | 0.25 µM |
| Cc1cc(=O)[nH]c2ccc3c4cc(F)ccc4oc(=O)c3c12 | 0.24 µM | 0.027 µM | 0.101 µM | 1 µM |
